# Patent EP2571872B1, “COMPOUNDS” (Treherne, Johnathan Mark, priority 2010, dated 2011)
# Assays:
# SH SY5Y cells = assay: Cell viability assay for amyloid toxicity using MTT reduction; assay type: cell-based; settings: protection of SH SY5Y cells from a toxic insult of 10µM Aβ(1-42), MTT reduction as measure of cell viability, 24 h incubation
# Experimental: Aβ(1-42) was prepared for amyloid aggregation and toxicity assays by dissolving Aβ(1-42) HCl salt in hexafluoroisopropanol (HFIP), with brief sonication and vortexing. This solution of the Aβ(1-42) peptide in HFIP was stored at 4°C @ 2mM. When required, an aliquot of this stock solution was freeze-dried and dissolved in DMSO to 200 times the required final assay concentration (e.g. 2mM for a final assay concentration of 10 µM).
# A 20mM stock solution of each test compound was prepared in DMSO, and aliquots of these solutions were used to prepare further stock solutions of each test compound in DMSO, ranging in concentration from 3µM up to 10mM. These stock solutions were prepared for use as and when required and stored at -20°C (maximum of 3 freeze-thaw cycles). The 20mM parent stock solutions were stored frozen at -20 °C.
# The activity of compounds in protecting SH SY5Y cells from a toxic insult of 10µM Aβ(1-42) was assessed by using inhibition of MTT reduction as a measure of cell viability. An aliquot (3µl) of test compound [various concentrations] in DMSO is added to 294 µl of Opti-Mem (containing 2% FBS, 1% Pen/Strep, 1% L-Gln) {daughter plate}. The well is mixed thoroughly. Then an aliquot (3 µl) of Aβ(1-42) [2mM] is added to the daughter plate wells and again mixed thoroughly. 50 µl is then aspirated and dispensed into wells containing 50 µl media + SH SY5Ycells (cells are also plated in Opti-Mem, at ∼ 30,000 cells/well/50 µl). […]
# Cell plates are incubated for 24 h and then the MTT assay (Shearman, 1999), is performed. […] The plate was shaken and the absorbance was recorded at both 570 nm and 650 nm. ΔA values were calculated by subtracting absorbance at 650 nm from absorbance at 570 nm, to reduce non-specific background absorbance. ΔA values from equivalent experiments were averaged and % cell viability was determined as follows: % cell viability = ([ΔA(sample)-ΔA(deal cell control)] x 100%)/([ΔA(live cell control)-ΔA(dead cell control)]) [formula] • Live cell controls: 1% DMSO in Opti-Mem • Dead cell controls: 0.1% Triton X-100 added to cells […]
# [1] = system: rat hippocampal brain slices; assay: Long-term potentiation (LTP) in hippocampal brain slices, Aβ(1-42)-induced depression of LTP; settings: compound at 3µM, Schaffer collateral stimulation
# Experimental: Long-term potentiation (LTP) is a natural, prolonged electrophysiological response associated with the neurological processes of learning and short-term memory, which are affected in Alzheimer's disease. […] LTP was measured using stimulation of Schaffer collaterals in rat hippocampal brain slices, as described below.
# 20µL of 5mM Example 1 in DMSO was added to the stock Aβ(1-42) (1mL) and agitated at 37°C for 24hr. On the experimental day the mixture is diluted to 33mL in aCSF (32mL) immediately prior to use. The final concentration of Example 1 was 3µM. The final concentration of Aβ(1-42) was 1µM and the final concentration of DMSO was 0.06% […]
# Schaffer collaterals were stimulated (3-22V, 0.1ms pulse width, 0.03Hz) with a concentric bipolar electrode and the evoked extracellular field excitatory postsynaptic potentials (fEPSPs) were recorded via an Axoclamp 2A amplifier from the stratum radiatum of the CA1 region of the hippocampus with a glass capillary microelectrode filled with 4M NaCl (resistance 2-4 MΩ). […] A 10 minute stable baseline period (control) was recorded followed by administration of test compound 10 minutes prior to high frequency stimulation (1sec 100Hz train) applied three times at 10 minute intervals with an 80 minute wash of test compound after the final high frequency stimulation protocol. […]
SMILES,IC50 (SH SY5Y cells; Homo sapiens) [µM],toxic effect of 1µM Aβ(1-42) on LTP [1],IC50 (SH SY5Y cells) [µM]
"Fc1cccc2c1OCCN2c1ncc(Oc2cccc(N3CCOCC3)c2)cn1 [Example 1, 8-Fluoro-4-[5-(3-morpholinophenoxy)pyrimidin-2-yl]-3,4-dihydro-2H-benzo[1,4]oxazine]",23,effectively blocked,–
"Fc1ccc2c(c1)N(c1ncc(Oc3cccc(N4CCOCC4)c3)cn1)CCO2 [Example 2, 6-Fluoro-4-[5-(3-morpholinophenoxy)pyrimidin-2-yl]-3,4-dihydro-2H-benzo[1,4]oxazine]",26,–,–
"Oc1cccc(Nc2ccc(Nc3cccc(O)c3)nn2)c1 [RS-0406, reference compound]",–,–,35
